From patent publication US10736973B2, “Glucose analogs for diagnosis states” (TECHNOLOGY INNOVATION MOMENTUM FUND (ISRAEL) LIMITED …, priority 2014, dated 2020)

Tests used:
[1] = rat, in vivo; cited from earlier work
[2] = CEST NMR of 10 mM glucose analog solutions (MTRasym); type: physicochemical; settings: pH 6.3-7.8 tested, 1.2 ppm, T=25° C., 11.7 T
Method: (§1) • Chemicals and Media: 3OMG, D-glucose, D-glucose 6 phosphate, 2-DG and 2-DG-6P sodium salt were obtained from Sigma-Aldrich, Israel; FDG was obtained from Carbosynth Limited, UK. The glucose analogs were prepared at concentration of 10 mM (pH=7.5), containing 10% D2O for NMR field locking. • Cells: DA3-D1-DMBA-3 is a cell line derived from a poorly differentiated mammary adenocarcinoma induced in BALB/C mice by dimethylbenzanthracene. • Animals: BALB/C female mice were purchased and kept in the breeding facility of the Sackler School of Medicine, Tel Aviv University. To induce orthotropic tumors in mice, DA3 cells were injected into the lower left mammary gland of 8 week old (17-22 gr) female BALB/c mice (5×10^5 cells in 100 μL saline). […] Each sample was dissolved in 0.5 ml D2O (99.98%, Biolab, Israel), adjusted at pH=6.5-7 and inserted into 5 mm tube for NMR. • NMR Spectroscopy: 1H NMR Spectra were recorded at 500 MHz in 5 mm tubes on a Bruker 500 MHz DRX with the following parameters: spectral width 7500 Hz, pulse width 5.5 us (corresponding to a 45° flip angle); data size 16 K; relaxation delay 10 s; number of scans=16. […] The chemical exchange contrast was measured by magnetization transfer asymmetry, MTRasym. […]

[3] = tested on: DA3 tumors; assay: CEST NMR of MCW extracts of tumors from treated mice; type: in vivo, BALB/C mice; settings: 25 min after 1.5 g/kg; compared with D-glu; B1=2.5 μT, pH=7.0, T=25° C., 11.7 T
Method: as §1

[4] = tested on: DA3 mammary tumors; assay: In vivo CEST MRI of DA3 mammary tumor bearing mice; set-up: species or system BALB/c mice
Method: CEST MRI experiments were performed on a Bruker 7T Biospec scanner with 30 cm bore size on implanted xenograph mammary tumors of mice before and following the injection of the glucose analog 3OMG. DA3 tumor bearing mice that were allowed to grow for 10-14 days, with an average tumor volume of 5 mm^3 were scanned. The mice were anesthetized using isoflurane (1-2%) and scanned with surface coil. Their temperature was monitored and maintained at 37° C. We performed i.p injections of the contrast medium, 3OMG (in saline, pH=7.4).
Images were generated as follows: a series of gradient-echo images were collected from a single 1 mm axial slice of (acquisition matrix 128×64, field of view of 40×40 mm2) after 1.2 s presaturation pulse of 2.5 μT (106 Hz) at ±1.2 ppm from the water signal. For the MTRasym plot, the mean intensities were used within the selected region of interest (ROI) within the tumor.
Having determined in vitro that 3OMG concentrations of only a few millimolar could be detected with CEST method (FIGS. 1-4), the determination of the potential use of 3OMG CEST MRI to image mammary tumors, in vivo, was carried out. Thus performed 3OMG CEST MRI experiments were carried out on mice bearing DA3 tumors injected with 3OMG glucose analog. Tumor anatomy was initially imaged using T2 weighted spin echo sequence (RARE).

[5] = tested on: hexokinase; settings: cited from earlier work
[6] = in vivo; cited from earlier work

O=C[C@H](F)[C@@H](O)[C@H](O)[C@H](O)CO [FDG, 2-fluoro-deoxy-D-glucose]
Toxicity [1]: toxic at high concentrations

O=CC[C@@H](O)[C@H](O)[C@H](O)CO [2-DG, 2-deoxy-D-glucose]
Toxic high concentration [1]: 3 g/kg | Toxicity [1]: toxic at high concentrations

CO[C@@H]([C@H](O)[C@H](O)CO)[C@@H](O)C=O [3OMG, 3-O-methylglucose]
pH at which the CEST effect has its maximum [2]: ~7.5 | CEST effect for the peak at 1.2 ppm in combined tumor extracts [3]: significantly high | CEST enhancement (% CEST increase) in the tumor ([4]; i.p. injection 1.5 g/kg, 7T, ±1.2 ppm, 2.5 μT): about 20% | Time after which the enhanced tumor CEST MRI image started to decay ([4]; injection 1.5 g/kg): > 20 min | CEST effect in other organs (apart from the urinary bladder) ([4]; injection 1.5 g/kg, throughout the MRI scans session): did not show any significant CEST effect | Phosphorylation [5]: does not undergo phosphorylation | Substrate for hexokinase [5]: does not serve as substrate | Excretion [6]: entirely excreted by the kidneys
